Reference: ChEMBL document CHEMBL3885881, “DrugMatrix”

Species: Rattus norvegicus
Assay: DrugMatrix - Regimen: Daily Repeat
Format: toxicity, organism-based, Sprague-Dawley
Design: regimen Daily Repeat, gender Male, age 6-8 weeks
Conditions: in vivo, iv, vehicle 100 % SALINE; for ABSOLUTE BASOPHIL / ABSOLUTE EOSINOPHIL / ABSOLUTE LYMPHOCYTE / ABSOLUTE MONOCYTE / ABSOLUTE SEGMENTED NEUTROPHIL / BASOPHIL / EOSINOPHIL / ERYTHROCYTE COUNT / HEMATOCRIT / HEMOGLOBIN / LEUKOCYTE COUNT / LYMPHOCYTE / MEAN CORPUSCULAR HEMOGLOBIN / MEAN CORPUSCULAR HEMOGLOBIN CONCENTRATION / MEAN CORPUSCULAR VOLUME / MONOCYTE / NEUTROPHIL / NUCLEATED RED BLOOD CELLS / PLATELET COUNT: tissue Blood; for ALANINE AMINOTRANSFERASE / ALBUMIN / ALKALINE PHOSPHATASE / ASPARTATE AMINOTRANSFERASE / BLOOD UREA NITROGEN / CARBON DIOXIDE / CHLORIDE / CHOLESTEROL / CREATINE PHOSPHOKINASE / CREATININE / GLUCOSE / LACTATE DEHYDROGENASE / LIPASE / PHOSPHORUS / POTASSIUM / SODIUM / TOTAL BILIRUBIN / TOTAL PROTEIN / URIC ACID: tissue Plasma
[1] = 0 mg/kg, 72 h, dose level Control, time 3 day
[2] = 0 mg/kg, 120 h, dose level Control, time 5 day
[3] = 0.005 mg/kg, 72 h, dose level Low, time 3 day

CC(=O)O[C@H]1C[C@@H]2CC[C@@H]3[C@H](CC[C@@]4(C)[C@H]3C[C@H]([N+]3(C)CCCCC3)[C@@H]4OC(C)=O)[C@@]2(C)C[C@@H]1N1CCCCC1.[Br-] [VECURONIUM BROMIDE]
ABSOLUTE BASOPHIL [1]: 0 CELLS/uL
ABSOLUTE EOSINOPHIL [1]: 0 CELLS/uL
ABSOLUTE LYMPHOCYTE [1]: 11636.83 CELLS/uL
ABSOLUTE MONOCYTE [1]: 159 CELLS/uL
ABSOLUTE SEGMENTED NEUTROPHIL [1]: 1170.83 CELLS/uL
BASOPHIL [1]: 0%
EOSINOPHIL [1]: 0%
ERYTHROCYTE COUNT [1]: 5.46 x10E6/uL
HEMATOCRIT [1]: 34.05%
HEMOGLOBIN [1]: 13.58 G/DL
LEUKOCYTE COUNT [1]: 12.97 x10E3/uL
LYMPHOCYTE [1]: 89.67%
MEAN CORPUSCULAR HEMOGLOBIN [1]: 24.87 pg
MEAN CORPUSCULAR HEMOGLOBIN CONCENTRATION [1]: 39.9 G/DL
MEAN CORPUSCULAR VOLUME [1]: 62.3 fL
MONOCYTE [1]: 1.33%
NEUTROPHIL [1]: 9%
NUCLEATED RED BLOOD CELLS [1]: 0.17 /100WBC
PLATELET COUNT [1]: 824 x10E3/uL
ALANINE AMINOTRANSFERASE [1]: 64.83 u/L
ALBUMIN [1]: 4.08 G/DL
ALKALINE PHOSPHATASE [1]: 421 u/L
ASPARTATE AMINOTRANSFERASE [1]: 116.83 u/L
BLOOD UREA NITROGEN [1]: 16.83 mg/dL
CARBON DIOXIDE [1]: 28 mmol/L
CHLORIDE [1]: 101.33 MEQ/L
CHOLESTEROL [1]: 74.17 mg/dL
CREATINE PHOSPHOKINASE [1]: 748.5 u/L
CREATININE [1]: 0.22 mg/dL
GLUCOSE [1]: 152.83 mg/dL
LACTATE DEHYDROGENASE [1]: 578.5 u/L
LIPASE [1]: 9.83 u/L
PHOSPHORUS [1]: 11.63 mg/dL
POTASSIUM [1]: 5.93 MEQ/L
SODIUM [1]: 142.1 MEQ/L
TOTAL BILIRUBIN [1]: 0.17 mg/dL
TOTAL PROTEIN [1]: 5.77 G/DL
URIC ACID [1]: 1.43 mg/dL
ABSOLUTE BASOPHIL [2]: 0 CELLS/uL
ABSOLUTE EOSINOPHIL [2]: 159.17 CELLS/uL
ABSOLUTE LYMPHOCYTE [2]: 12267.5 CELLS/uL
ABSOLUTE MONOCYTE [2]: 30 CELLS/uL
ABSOLUTE SEGMENTED NEUTROPHIL [2]: 1160 CELLS/uL
BASOPHIL [2]: 0%
EOSINOPHIL [2]: 1.17%
ERYTHROCYTE COUNT [2]: 5.52 x10E6/uL
HEMATOCRIT [2]: 34.3%
HEMOGLOBIN [2]: 13.73 G/DL
LEUKOCYTE COUNT [2]: 13.62 x10E3/uL
LYMPHOCYTE [2]: 90.5%
MEAN CORPUSCULAR HEMOGLOBIN [2]: 24.92 pg
MEAN CORPUSCULAR HEMOGLOBIN CONCENTRATION [2]: 40.07 G/DL
MEAN CORPUSCULAR VOLUME [2]: 62.17 fL
MONOCYTE [2]: 0.17%
NEUTROPHIL [2]: 8.17%
NUCLEATED RED BLOOD CELLS [2]: 0.17 /100WBC
PLATELET COUNT [2]: 1261.83 x10E3/uL
ALANINE AMINOTRANSFERASE [2]: 58.67 u/L
ALBUMIN [2]: 4.15 G/DL
ALKALINE PHOSPHATASE [2]: 364.67 u/L
ASPARTATE AMINOTRANSFERASE [2]: 105.33 u/L
BLOOD UREA NITROGEN [2]: 17.67 mg/dL
CARBON DIOXIDE [2]: 26.5 mmol/L
CHLORIDE [2]: 101.67 MEQ/L
CHOLESTEROL [2]: 63 mg/dL
CREATINE PHOSPHOKINASE [2]: 480.67 u/L
CREATININE [2]: 0.17 mg/dL
GLUCOSE [2]: 144.67 mg/dL
LACTATE DEHYDROGENASE [2]: 540.33 u/L
LIPASE [2]: 10.33 u/L
PHOSPHORUS [2]: 11.52 mg/dL
POTASSIUM [2]: 6.12 MEQ/L
SODIUM [2]: 142.45 MEQ/L
TOTAL BILIRUBIN [2]: 0.18 mg/dL
TOTAL PROTEIN [2]: 5.73 G/DL
URIC ACID [2]: 1.48 mg/dL
ABSOLUTE BASOPHIL [3]: 0 CELLS/uL
ABSOLUTE EOSINOPHIL [3]: 199.67 CELLS/uL
ABSOLUTE LYMPHOCYTE [3]: 11233.67 CELLS/uL
ABSOLUTE MONOCYTE [3]: 56 CELLS/uL
ABSOLUTE SEGMENTED NEUTROPHIL [3]: 844 CELLS/uL
BASOPHIL [3]: 0%
EOSINOPHIL [3]: 1.33%
ERYTHROCYTE COUNT [3]: 5.06 x10E6/uL
HEMATOCRIT [3]: 32.6%
HEMOGLOBIN [3]: 13.3 G/DL
LEUKOCYTE COUNT [3]: 12.33 x10E3/uL
LYMPHOCYTE [3]: 91.67%
MEAN CORPUSCULAR HEMOGLOBIN [3]: 26.33 pg
MEAN CORPUSCULAR HEMOGLOBIN CONCENTRATION [3]: 40.8 G/DL
MEAN CORPUSCULAR VOLUME [3]: 64.5 fL
MONOCYTE [3]: 0.33%
NEUTROPHIL [3]: 6.67%
NUCLEATED RED BLOOD CELLS [3]: 0.33 /100WBC
PLATELET COUNT [3]: 730.67 x10E3/uL
ALANINE AMINOTRANSFERASE [3]: 57 u/L
ALBUMIN [3]: 4.2 G/DL
ALKALINE PHOSPHATASE [3]: 421.67 u/L
ASPARTATE AMINOTRANSFERASE [3]: 117.33 u/L
BLOOD UREA NITROGEN [3]: 19 mg/dL
CARBON DIOXIDE [3]: 31 mmol/L
CHLORIDE [3]: 100.67 MEQ/L
CHOLESTEROL [3]: 72 mg/dL
CREATINE PHOSPHOKINASE [3]: 975.33 u/L
CREATININE [3]: 0.22 mg/dL
GLUCOSE [3]: 155.33 mg/dL
LACTATE DEHYDROGENASE [3]: 630.33 u/L
LIPASE [3]: 11.67 u/L
PHOSPHORUS [3]: 10.7 mg/dL
POTASSIUM [3]: 6.14 MEQ/L
SODIUM [3]: 141.83 MEQ/L
TOTAL BILIRUBIN [3]: 0.2 mg/dL
TOTAL PROTEIN [3]: 5.87 G/DL
URIC ACID [3]: 1.03 mg/dL
